# In article PMC7887271, “Fast acting allosteric phosphofructokinase inhibitors block trypanosome glycolysis and cure acute African trypanosomiasis in mice” (Nature Communications, 2021):
# Read-outs that look alike come from different tables or passages of the source.
# System: bloodstream form of T. brucei strain Lister 427
# Experiment: T. b. brucei 427 growth inhibition assay (LILiT, Alamar Blue)
# Type: cell-based
# Details: Trypanosoma brucei
# Experimental: The ‘in vitro’ parasite killing assay used the BSF of the non-human pathogenic subspecies T. b. brucei, strain Lister 427, cultured in HMI-9 medium containing 10% foetal bovine serum. A second cell line, T. b. brucei GVR35-Luc2 which constitutively expresses firefly luciferase was grown in Modified HMI-9 plus 20% foetal calf serum supplemented with 20% Serum Plus (Sigma) and 0.15 μg mL^−1 puromycin. Both strains of trypanosomes were cultured in T-25 vented cap flasks at 37 °C and 5% CO2.
# The ‘in vitro’ parasite killing assay used the bloodstream-form of the non-human pathogenic subspecies T. b. brucei, strain Lister 427 (a gift from Professor Keith Matthews) which was cultured in HMI-9 medium containing 10% fetal bovine serum (FBS). A second cell line, T. b. brucei GVR35-Luc2 which constitutively expresses firefly luciferase (5) was grown in Modified HMI-9 plus 20% fetal calf serum (FCS) supplemented with 20% Serum Plus (Sigma) and 0.15 μg/ml puromycin as described previously (5). Both strains of trypanosomes were cultured in T-25 vented cap flasks at 37 °C and 5% CO2.
# Growth inhibition tests of bloodstream-form T. b. brucei Lister 427 were carried out using the LILiT (long incubation low inoculation test) method (6). The parasites were cultured in complete HMI-9 medium containing 10% FBS in 96-well plates (Greiner Inc.) with approximately 2500 trypanosomes per well. A 3-fold dilution series (in the range from 45 µM – 0.020 µM) of the inhibitor compounds were prepared in the plate; the maximal concentration of DMSO was 0.45%. After 72 hours of incubation at 37 °C and 5% CO2, 50 µl Alamar Blue (0.2% diluted with Dulbecco’s-phosphate buffered saline (D-PBS, Sigma) was added to each well and plates were incubated at 37 °C and 5% CO2 for 4 hours. Fluorescence was read on the BMG multiplate reader using an excitation wavelength of 530 nm and an emission wavelength of 590 nm.
# [1] = 72 h, Alamar Blue, read-out: EC50 (µM) in vitro parasite killing of bloodstream form T. brucei Lister 427 (Tbb EC50)
# [2] = Glycerol 0.75 mM, read-out: EC50
# [3] = Glycerol 5.0 mM, read-out: EC50
SMILES,EC50 [1] [µM],"EC50 (Glycerol 0 mM, read-out: EC50) [µM]",EC50 [2] [µM],"EC50 (Glycerol […], read-out: EC50) [µM]","EC50 (72 h, read-out: EC50 (µM) in vitro parasite killing of bloodstream form T. brucei Lister 427 (Tbb EC50), 72 h, Alamar Blue) [µM]",EC50 [3] [µM]
"CN(C)CCn1ccc2c(ccn2Cc2ccc(Cl)c(Br)c2)c1=O [CTCB-470, 1-[(3-Bromo-4-chlorophenyl)methyl]-5-[2-(dimethylamino)ethyl] pyrrolo[3,2-c]pyridin-4-one]",0.31 ± 0.03,0.23,0.26,0.26,,
CNCCn1ccc2c(ccn2Cc2ccc(Cl)c(Cl)c2)c1=O [CTCB-435],,,,,0.25 ± 0.05,
"CN(C)CCn1ccc2c(ccn2Cc2ccc(Cl)c(Cl)c2)c1=O [CTCB-405, 1-[(3,4-Dichlorophenyl)methyl]-5-[2-(dimethylamino)ethyl] pyrrolo[3,2-c]pyridin-4-one]",0.37 ± 0.04,0.27,0.33,0.32,,0.45
"CN(C)CCn1ccc2c(ccn2Cc2ccc(F)c(Br)c2)c1=O [CTCB-508, 1-[(3-Bromo-4-fluorophenyl)methyl]-5-[2-(dimethylamino)ethyl] pyrrolo[3,2-c]pyridin-4-one]",0.3 ± 0.02,,0.31,0.34,,0.44
